Data from ChEMBL document CHEMBL4842385, “Indirubin Derivatives as Dual Inhibitors Targeting Cyclin-Dependent Kinase and Histone Deacetylase for Treating Cancer” (J Med Chem, 2021).

Tests used:
K562 = assay: Antiproliferative activity against human K562 cells assessed as cell growth inhibition measured after 48 hrs by CCK8 assay; format: functional, cell-based; conditions: K562, 48 h
MCF7 = assay: Antiproliferative activity against human MCF7 cells assessed as cell growth inhibition measured after 48 hrs by CCK8 assay; format: functional, cell-based; conditions: MCF7, 48 h
HepG2 = assay: Antiproliferative activity against human HepG2 cells assessed as cell growth inhibition measured after 48 hrs by CCK8 assay; format: functional, cell-based; conditions: HepG2, 48 h
HeLa = assay: Antiproliferative activity against human HeLa cells assessed as cell growth inhibition measured after 48 hrs by CCK8 assay; format: functional, cell-based
A549 [1] = assay: Synergistic antiproliferative activity against human A549 cells assessed as combination index in presence of 2.5 to 46 uM tubastatin-A by Chou-Talalay method; format: functional; conditions: dose 2.5-46 µM
A549 [2] = assay: Antiproliferative activity against human A549 cells assessed as cell growth inhibition measured after 48 hrs by CCK8 assay; format: functional, cell-based; conditions: A549, 48 h
A549 [3] = assay: Synergistic antiproliferative activity against human A549 cells assessed as combination index in presence of vorinostat by Chou-Talalay method; format: functional
[4] = target: Histone deacetylase (Homo sapiens) (UniProt Q13547+O15379+Q9UBN7+Q92769+Q9UQL6+Q8WUI4+Q9BY41+Q96DB2+P56524+Q9UKV0+Q969S8); conditions: HeLa, Nucleus, dose 1000.0 nM, time 1.0 hrs
[5] = target: CDK2/Cyclin A2 (Homo sapiens) (UniProt P24941+P20248); conditions: dose 100.0 nM, time 10.0 min
[6] = target: CDK6/cyclin D3 (Homo sapiens) (UniProt P30281+Q00534); conditions: dose 100.0 nM, time 10.0 min
[7] = target: CDK4/Cyclin D3 (Homo sapiens) (UniProt P11802+P30281); conditions: dose 100.0 nM, time 10.0 min

| Structure (SMILES) | inhibition [4] [%] | inhibition [5] [%] | inhibition [6] [%] | inhibition [7] [%] | other results |
| --- | --- | --- | --- | --- | --- |
| CC(=O)c1c(C)c2cnc(Nc3ccc(N4CCNCC4)cn3)nc2n(C2CCCC2)c1=O [PALBOCICLIB] | – | – | – | – | IC50 (K562): > 10 µM; IC50 (MCF7): > 10 µM; IC50 (HepG2): > 10 µM; IC50 (HeLa): > 10 µM; CI (A549 [1]): 0.9; IC50 (A549 [2]): 9.4 µM; CI (A549 [3]): 0.9 |
| COc1ccc2c(c1)C(=N\OCCCCCCC(=O)NO)/C(=C1/C(=O)Nc3ccccc31)N2 | 93.5 | 5.9 | – | – | – |
| O=C(CCCCCCO/N=C1/C(=C2/C(=O)Nc3ccccc32)Nc2ccc(Br)cc21)NO | 79.5 | 0.5 | – | – | – |
| O=C(CCCCCCC(=O)Nc1ccccc1)NO | – | 2.9 | 0.8 | -5.8 | – |
| O=C(CCCCCCO/N=C1/C(=C2/C(=O)Nc3ccccc32)Nc2ccc(Cl)cc21)NO | 90.8 | -1.4 | – | – | – |
| O=C(CCCCCCO/N=C1/C(=C2/C(=O)Nc3ccc(I)cc32)Nc2ccccc21)NO | 67.3 | 55.7 | 0.8 | 9.7 | – |
| O=C(CCCCCO/N=C1/C(=C2/C(=O)Nc3ccccc32)Nc2ccccc21)NO | 89.9 | 30 | 28.8 | 10.2 | – |
| O=C(CCCCCCO/N=C1/C(=C2/C(=O)Nc3c2cccc3C(F)(F)F)Nc2ccccc21)NO | 8 | 3 | 4 | -5.6 | – |
| Cc1ccc2c(c1)C(=N\OCCCCCCC(=O)NO)/C(=C1/C(=O)Nc3ccccc31)N2 | 97.8 | 11.6 | 2.7 | -1.7 | – |
| Cc1ccc2c(c1)NC(=C1\C(=O)Nc3ccccc31)/C2=N/OCCCCCCC(=O)NO | 94.4 | 4 | – | – | – |
| O=C(CCCCCO/N=C1/C(=C2/C(=O)Nc3ccc(Br)cc32)Nc2ccccc21)NO | 21.4 | – | -0.7 | 3.5 | – |
| Cc1ccc2c(c1)/C(=C1/Nc3ccccc3/C1=N\OCCCCCCC(=O)NO)C(=O)N2 | 89.9 | 18.6 | -2.2 | 1.3 | – |
| O=C(CCCCCCO/N=C1/C(=C2/C(=O)Nc3ccc(Cl)cc32)Nc2ccccc21)NO | 82.6 | 54.9 | 63 | 18 | – |
| COc1ccc2c(c1)/C(=C1/Nc3ccccc3/C1=N\OCCCCCCC(=O)NO)C(=O)N2 | 88.6 | 54 | 3.5 | 13 | – |
| O=C(CCCCCCCO/N=C1/C(=C2/C(=O)Nc3ccccc32)Nc2ccccc21)NO | 90.6 | 6.6 | -2.7 | -4.5 | – |
| O=C(CCCCCCO/N=C1/C(=C2/C(=O)Nc3ccccc32)Nc2ccc([N+](=O)[O-])cc21)NO | 76.6 | 6.2 | – | – | – |
| O=C(CCCCCCO/N=C1/C(=C2/C(=O)Nc3ccc([N+](=O)[O-])cc32)Nc2ccccc21)NO | 77.2 | 33.4 | 1 | 1.1 | – |
| O=C1Nc2ccccc2/C1=C1/Nc2ccccc2C1=O [INDIRUBIN] | 17.2 | 8.5 | 25.1 | 1 | IC50 (K562): > 10 µM; IC50 (MCF7): > 10 µM; IC50 (HepG2): > 10 µM; IC50 (HeLa): > 10 µM; IC50 (A549 [2]): > 10 µM |
| O=C(CCCO/N=C1/C(=C2/C(=O)Nc3ccc(Br)cc32)Nc2ccccc21)NO | 9.1 | – | -0.8 | -0.2 | – |
| Cc1cccc2c1NC(=O)/C2=C1\Nc2ccccc2\C1=N/OCCCCCCC(=O)NO | 91.1 | 2.1 | 4.6 | 2 | – |
| COc1ccc2c(c1)NC(=O)/C2=C1\Nc2ccccc2\C1=N/OCCCCCCC(=O)NO | 44.7 | 4.5 | 8.3 | -2.5 | – |
| O=C1Nc2ccccc2/C1=C1/Nc2ccccc2/C1=N\O | 15 | 33.9 | 46.6 | -1.5 | – |
| O=C(CCCCCCO/N=C1/C(=C2/C(=O)Nc3ccccc32)Nc2ccccc21)NO | 98.1 | 14.6 | 6.5 | 6.1 | – |
| O=C(CO/N=C1/C(=C2/C(=O)Nc3ccc(Br)cc32)Nc2ccccc21)NO | 17.5 | – | 44.4 | 54.5 | – |
| O=C(CCCCO/N=C1/C(=C2/C(=O)Nc3ccccc32)Nc2ccccc21)NO | 58.3 | 47.4 | 45.4 | 21.1 | – |
| O=C(CCCCCCO/N=C1/C(=C2/C(=O)Nc3ccc(F)cc32)Nc2ccccc21)NO | 82.7 | 45.4 | 4.9 | 17.2 | – |
| O=C(CO/N=C1/C(=C2/C(=O)Nc3ccccc32)Nc2ccccc21)NO | 19.6 | 46.7 | 46.8 | 26.2 | – |
| O=C(CCCCCCO/N=C1/C(=C2/C(=O)Nc3ccc(Br)cc32)Nc2ccccc21)NO | 87.5 | 5 | -2.3 | -4.3 | – |
| O=C(CCCCO/N=C1/C(=C2/C(=O)Nc3ccc(Br)cc32)Nc2ccccc21)NO | 60.2 | – | 8 | 17.9 | – |
